# According to patent publication US20220133722A1, “PHARMACEUTICAL COMPOSITIONS” (QUE ONCOLOGY PTY LTD, priority 2019, published 2022):
# Where “and” joins values, the source holds several entries; their conditions need not be identical. Equal values may be shown once.
# Assay: Part 2 PK study: 200 mg QD versus 100 mg BID for 10 days under fed conditions
# Format: in vivo, human
# Conditions: for AUC0-last / AUC0-tau / Cavg / Cmax / Fluct / Tlast / Tmax / t½ / % AUCexp / AUCinf / Accum Index / CLss/F / Cmin: fed
# Experimental: Part 2 involved analysing the PK parameters obtained following either single (QD) or twice daily (BD) dosing of a compound of formula (Ia) under fed conditions.
# Subjects were randomized 1:1 to receive a daily dose of 200 mg administered once daily in the morning (200 mg capsule) or twice daily (100 mg capsules BID) for a total of 10 days. PK blood samples were taken on Day 1 pre-dose and at 0.25, 0.5, 1.0, 1.5, 2, 3, 4, 8, 10, 12 and 16 hours post-dose. On Days 2 to 10, PK blood samples were taken once pre-dose, and on Days 11 to 14, at 24, 36, 48, 60, 72 and 96 hours post-dose.
# Subjects selected for participation checked into the clinical unit and were randomized to the dosing regimen receiving their first dose of study drug on the morning of Day 1 followed by PK and safety assessments through the morning of Day 2 (24 hours post-dose). Subjects on a BID regimen received their second dose of study drug approximately 12 hours after the first dose. Subjects remained confined in the clinic for dosing BID or QD through the last dose of study drug on the morning of Day 10. PK samples were collected through 96 hrs post-dose. Subjects were discharged from the clinic following collection of the 72 hr PK sample, returning to the clinic on the morning of Day 14 for the 96 hr sample collection.
# For both Parts 1 and 2, samples were processed and analysed as follows. The method extracted Q-122 and the Internal Standard (IS, Q-122 ^13C4) from human plasma using protein precipitation extraction.
# The analytes were separated by HPLC on a Phenomenex Synergi Polar-RP column, and the eluates monitored by an API4000 MS/MS detector in positive MRM mode. The extract was then assayed against a calibration curve. The data were acquired and processed by the data acquisition system Analyst® (Sciex) linked directly to the API4000 MS/MS detector and then processed in Watson LIMS™ (Thermo Scientific), where applicable. The method range is from 10.0 to 2500 ng/mL using 50 μL of matrix and has a run time of approximately 3.2 minutes per sample.
# Plasma PK parameters for each dosing regimen and dose level were calculated from the concentrations of Q-122 and its major metabolites measured in pre-dose and post-dose plasma samples. For each dose level, descriptive statistics (sample size, arithmetic means, geometric means, standard deviation, % coefficient of variation, minimum, median, and maximum) are presented.
# The pharmacokinetic results were processed according to standard non-compartmental analytical procedures. The software used was Phoenix™ WinNonlin® v 6.4 (Pharsight Corporation, USA) and Microsoft® Excel® 2010 (Microsoft Corporation). The following PK parameters were estimated from plasma data.
# [1] = 100 mg BID, Day 1, individual subjects
# [2] = 100 mg BID, Day 10, individual subjects
# [3] = 200 mg QD, Day 1, individual subjects
structure (smiles),measurement,setting,value
c1cnc(NCc2ccc(CNc3ncccn3)cc2)nc1 [Q-122],Cmin (range over subjects),100 mg BID dosing with food,117 to 195 ng/mL
same,change of Cavg between days 1 and 10,100 mg BID dosing with food,doubled
same,increase of mean Cmax between days 1 and 10,100 mg BID dosing with food,less than 2 fold
same,trough concentrations with BID dosing relative to QD dosing,100 mg BID versus 200 mg QD,approximately double
same,AUC0-last,[1],6822 ng·h/mL and 7028 ng·h/mL and 6463 ng·h/mL and 6090 ng·h/mL and 5186 ng·h/mL
same,AUC0-tau,[1],3781 ng·h/mL and 2727 ng·h/mL and 4254 ng·h/mL and 3600 ng·h/mL and 4378 ng·h/mL
same,Cavg,[1],354.49 ng/mL and 299.97 ng/mL and 364.87 ng/mL and 232.90 ng/mL and 315.05 ng/mL and 227.25 ng/mL
same,Cmax,[1],939.00 ng/mL and 773.00 ng/mL and 845.00 ng/mL and 405.00 ng/mL and 852.00 ng/mL and 563.00 ng/mL
same,Fluct,[1],264.89% and 257.70% and 231.59% and 173.90% and 270.44% and 247.74%
same,Tlast,[1],24.00 h
same,Tmax,[1],1.00 h and 1.50 h
same,t½,[1],9.38 h and 6.21 h and 3.97 h and 3.19 h and 5.52 h and 4.66 h
same,AUC0-tau,"100 mg BID, Day 1, max",4378 ng·h/mL
same,Cavg,"100 mg BID, Day 1, max",364.87 ng/mL
same,Cmax,"100 mg BID, Day 1, max",939.00 ng/mL
same,Fluct,"100 mg BID, Day 1, max",270.44%
same,Tlast,"100 mg BID, Day 1, max",24.00 h
same,t½,"100 mg BID, Day 1, max",9.38 h
same,Cavg,"100 mg BID, Day 1, mean",299.088 ng/mL
same,Fluct,"100 mg BID, Day 1, mean",241.041%
same,Tlast,"100 mg BID, Day 1, mean",24.000 h
same,Cavg,"100 mg BID, Day 1, median",307.51 ng/mL
same,Fluct,"100 mg BID, Day 1, median",252.72%
same,Tlast,"100 mg BID, Day 1, median",24.00 h
same,AUC0-last,"100 mg BID, Day 1, min",5186 ng·h/mL
same,AUC0-tau,"100 mg BID, Day 1, min",2727 ng·h/mL
same,Cavg,"100 mg BID, Day 1, min",227.25 ng/mL
same,Cmax,"100 mg BID, Day 1, min",405.00 ng/mL
same,Fluct,"100 mg BID, Day 1, min",173.90%
same,Tlast,"100 mg BID, Day 1, min",24.00 h
same,Tmax,"100 mg BID, Day 1, min",1.00 h
same,t½,"100 mg BID, Day 1, min",3.19 h
same,% AUCexp,[2],2.24% and 1.52% and 8.16% and 4.45% and 7.33% and 4.38%
same,AUC0-last,[2],7715 ng·h/mL and 5510 ng·h/mL and 6477 ng·h/mL and 5615 ng·h/mL and 7597 ng·h/mL
same,AUC0-tau,[2],5982 ng·h/mL and 3731 ng·h/mL and 5545 ng·h/mL and 4118 ng·h/mL and 6283 ng·h/mL
same,AUCinf,[2],7834 ng·h/mL and 6000 ng·h/mL and 6779 ng·h/mL and 6059 ng·h/mL and 7945 ng·h/mL
same,Accum Index,[2],2.06 and 1.33 and 4.17 and 1.36 and 1.79 and 1.28
same,CLss/F,[2],14.28 L/h and 16.72 L/h and 26.80 L/h and 18.03 L/h and 24.29 L/h and 15.92 L/h
same,Cavg,[2],583.47 ng/mL and 498.51 ng/mL and 310.92 ng/mL and 462.09 ng/mL and 343.13 ng/mL and 523.54 ng/mL
same,Cmax,[2],1160.00 ng/mL and 865.00 ng/mL and 1050.00 ng/mL and 677.00 ng/mL and 1070.00 ng/mL
same,Cmin,[2],122.00 ng/mL (2×) and 164.00 ng/mL and 117.00 ng/mL and 155.00 ng/mL and 195.00 ng/mL
same,Fluct,[2],201.90% and 199.80% and 240.58% and 200.83% and 152.13% and 167.13%
same,Tlast,[2],48.00 h and 36.00 h (2×) and 72.00 h and 24.00 h (2×)
same,Tmax,[2],1.50 h and 1.00 h
same,t½,[2],12.52 h and 6.01 h and 30.30 h and 6.26 h and 10.19 h and 5.46 h
same,% AUCexp,"100 mg BID, Day 10, max",8.16%
same,Accum Index,"100 mg BID, Day 10, max",4.17
same,CLss/F,"100 mg BID, Day 10, max",26.80 L/h
same,Cavg,"100 mg BID, Day 10, max",583.47 ng/mL
same,Cmin,"100 mg BID, Day 10, max",195.00 ng/mL
same,Fluct,"100 mg BID, Day 10, max",240.58%
same,Tlast,"100 mg BID, Day 10, max",72.00 h
same,t½,"100 mg BID, Day 10, max",30.30 h
same,% AUCexp,"100 mg BID, Day 10, mean",4.679%
same,CLss/F,"100 mg BID, Day 10, mean",19.340 L/h
same,Cavg,"100 mg BID, Day 10, mean",453.609 ng/mL
same,Cmin,"100 mg BID, Day 10, mean",145.833 ng/mL
same,Fluct,"100 mg BID, Day 10, mean",193.726%
same,Tlast,"100 mg BID, Day 10, mean",40.000 h
same,% AUCexp,"100 mg BID, Day 10, median",4.42%
same,Accum Index,"100 mg BID, Day 10, median",1.58
same,CLss/F,"100 mg BID, Day 10, median",17.38 L/h
same,Cavg,"100 mg BID, Day 10, median",480.30 ng/mL
same,Cmin,"100 mg BID, Day 10, median",138.50 ng/mL
same,Fluct,"100 mg BID, Day 10, median",200.31%
same,Tlast,"100 mg BID, Day 10, median",36.00 h
same,% AUCexp,"100 mg BID, Day 10, min",1.52%
same,AUC0-last,"100 mg BID, Day 10, min",5510 ng·h/mL
same,AUC0-tau,"100 mg BID, Day 10, min",3731 ng·h/mL
same,AUCinf,"100 mg BID, Day 10, min",6000 ng·h/mL
same,Accum Index,"100 mg BID, Day 10, min",1.28
same,CLss/F,"100 mg BID, Day 10, min",14.28 L/h
same,Cavg,"100 mg BID, Day 10, min",310.92 ng/mL
same,Cmax,"100 mg BID, Day 10, min",677.00 ng/mL
same,Cmin,"100 mg BID, Day 10, min",117.00 ng/mL
same,Fluct,"100 mg BID, Day 10, min",152.13%
same,Tlast,"100 mg BID, Day 10, min",24 h
same,Tmax,"100 mg BID, Day 10, min",1.00 h
same,t½,"100 mg BID, Day 10, min",5.46 h
same,Cmin (range over subjects),200 mg QD dosing with food,52 to 94 ng/mL
same,change of Cmax and Cavg between Days 1 and 10,200 mg QD dosing with food,neither Cmax nor Cavg changed
same,AUC0-last,[3],6439 ng·h/mL and 1632 ng·h/mL and 6744 ng·h/mL and 8831 ng·h/mL and 12137 ng·h/mL and 12571 ng·h/mL
same,AUC0-tau,[3],8831 ng·h/mL and 12137 ng·h/mL and 12571 ng·h/mL and 6439 ng·h/mL and 1632 ng·h/mL and 6744 ng·h/mL
same,Cavg,[3],268.28 ng/mL and 67.99 ng/mL and 290.99 ng/mL and 367.97 ng/mL and 505.70 ng/mL and 523.80 ng/mL
same,Cmax,[3],980.00 ng/mL and 101.00 ng/mL and 1410.00 ng/mL and 1700.00 ng/mL and 1880.00 ng/mL and 2010.00 ng/mL
same,Fluct,[3],365.28% and 148.55% and 501.79% and 461.99% and 371.76% and 383.73%
same,Tlast,[3],24.00 h
same,t½,[3],7.07 h and 5.60 h and 4.61 h and 9.17 h and 17.12 h and 8.29 h
same,AUC0-last,"200 mg QD, Day 1, max",12571 ng·h/mL
same,AUC0-tau,"200 mg QD, Day 1, max",12571 ng·h/mL
same,Cavg,"200 mg QD, Day 1, max",523.80 ng/mL
same,Cmax,"200 mg QD, Day 1, max",2010.00 ng/mL
same,Fluct,"200 mg QD, Day 1, max",501.79%
same,Tlast,"200 mg QD, Day 1, max",24.00 h
same,t½,"200 mg QD, Day 1, max",17.12 h
same,Cavg,"200 mg QD, Day 1, mean",335.791 ng/mL
same,Fluct,"200 mg QD, Day 1, mean",372.185%
same,Tlast,"200 mg QD, Day 1, mean",24.000 h
same,Cavg,"200 mg QD, Day 1, median",324.48 ng/mL
same,Fluct,"200 mg QD, Day 1, median",377.75%
same,Tlast,"200 mg QD, Day 1, median",24.00 h
same,AUC0-last,"200 mg QD, Day 1, min",1632 ng·h/mL
same,AUC0-tau,"200 mg QD, Day 1, min",1632 ng·h/mL
same,Cavg,"200 mg QD, Day 1, min",67.99 ng/mL
same,Cmax,"200 mg QD, Day 1, min",101.00 ng/mL
same,Fluct,"200 mg QD, Day 1, min",148.55%
same,Tlast,"200 mg QD, Day 1, min",24.00 h
same,t½,"200 mg QD, Day 1, min",4.61 h
